Measurements taken from patent publication US20190367558A1, “ANTIBODY/DRUG CONJUGATES AND METHODS OF USE” (ESPERANCE PHARMACEUTICALS, INC., priority 2012, published 2019).
“Also recorded” adds a separate entry of the source. Read-outs that look alike come from different tables or passages of the source.

Key:
Type in all cases: cell-based, human
[1] = test system: Raji (CD20 positive Non-Hodgkin's lymphoma cells); test: Cell viability, Cell Titer Glo luminescent assay (Example 12)
Method: (§1) Naked antibody anti-CD20-IgG1-Phor18 were chemically conjugated (MS4A and AT80), Mw app.158,000 g/mol at a concentrations of 0.34 mg/ml (MS4A-Phor18) and 0.76 mg/ml (AT-80-Phor18). Cell lines were obtained at the American Type Cell Collection (Mannassas, Va.). Human Non-Hodgkin's lymphoma cells Daudi (CD20 positive, passage number p2), Raji (CD20 positive p 2) and human leukemia cell line U937 (CD20 negative, p 10) were seeded at a density of 3,000 cells per well in opaque plates in heat inactivated full medium. After 24 hours cells were replenished with fresh media (75 μl) and incubated with 25 μl of a 4× serial dilution of MS4A1-Phor18 and AT80-Phor18 of 0.001, 0.01, 0.1, 1, 10, 100 and 500 nM (N=6). Cells incubated for 2-5 hours were assayed for membrane integrity using a luminometric assay kit (Promega, Madison, Wis., Cytotox Glo G9292 lot #301329). Cell viability was determined was determined after 24, and 48 hours using a luminescent assay kit (Promega, Madison, Wis., Cell Titer Glo, G 7572, lot 30068102).

[2] = test system: Daudi (CD20 positive Non-Hodgkin's lymphoma cells); test: Membrane integrity, Cytotox Glo luminometric assay (Examples 12, 16, 19, 20, 22); details: membrane integrity
Method: as §1
(§2) The concentration of each naked antibody fragment and ADC was determined according to Bradford. Naked antibody scFv Mw 27,088 g/mol at a concentration of 0.3 mg/ml, minibody Mw 78,988 g/mol, 0.231 mg/ml; Phor 18 conjugated antibodies were scFv-Phor18 (Mw 29,349 g/mol, 0.9 mg/ml) and minibody-Phor18 (Mw 93,515, 0.48 mg/ml). Cell lines were obtained at the American Type Cell Collection (Mannassas, Va.). Human Non-Hodgkin's lymphoma cells Daudi (CD20 positive, passage number p8) and human leukemia cell line U937 (CD20 negative, p 16) were seeded at a density of 2,000 cells per well in opaque plates in heat inactivated full medium. After 24 hours cells were replenished with fresh media (75 μl) and incubated with 25 μl of a 4× serial dilution of scFv-Phor18 and minibody-Phor18 ADC and naked antibody fragment (scFv and minibody) prepared in cell culture media were added at concentrations of 0.0001, 0.001, 0.01, 0.1, 1, 10, 100, 200, and 500 nM (N=6). Cells incubated for 4 hours were assayed for membrane integrity using a luminometric assay kit (Promega, Madison, Wis., Cytotox Glo G9292 lot #301329). Cell viability was determined was determined after 24, 48 and 72 hours using a luminescent assay kit (Promega, Madison, Wis., Cell Titer Glo, G 7572, lot 30062102).
(§3) Controls for 100% cell viability (culture media) and 100% cell death (0.1% Triton X 100) incubated under the same conditions.
(§4) Data were processed and analyzed to obtain IC50 values using Graph Pad Prizm version 5.00 for Windows, GraphPad Software, San Diego Calif. USA, www-graphpad-com (Graph Pad Prizm, Inc). Statistical analysis for significance was determined by a two-tailed Student's T-test. Each test was conducted using 2 plates with 2-3 wells each to achieve an N of 4-6 data points per time point.
(§5) The concentration of each naked antibody fragment and ADC was determined spectrophotometrically (OD280). Naked antibody scFv-Fc Mw 52,562 g/mol at a concentration of 1.1 mg/ml, Phor 18 conjugated antibodies were Phor18-VL-scFvFc (Mw 54,685 g/mol, 1.0 mg/ml), scFv-Fc-CH3-Phor18 (Mw 54,685 g/mol, 0.8 mg/ml). Human Non-Hodgkin's lymphoma cells Daudi (CD20 positive, passage number p7) and human leukemia cell line U937 (CD20 negative, p 6) were seeded at a density of 2,000 cells per well in opaque plates in heat inactivated full medium using cell dissociation buffer. After 24 hours cells were replenished with fresh media (75 μl) and incubated and incubated with 25 μl of a 4× serial dilution of each ADC and naked antibody prepared in cell culture media were added at concentrations of 0.01, 0.1, 1, 10, 100, 200 and 500 nM for scFvFc, Phor18-VL-scFvFc and scFv-Fc-CH3-Phor18.
(§6) Cells incubated for 4 hours were assayed for membrane integrity using a luminometric assay kit (Promega, Madison, Wis., Cytotox Glo G9292 lot #26229601). Cell viability was determined was determined after 24 hours using a luminescent assay kit (Promega, Madison, Wis., Cell Titer Glo, G 7572, lot 30731602). […]

[3] = test system: Daudi (CD20 positive Non-Hodgkin's lymphoma cells); test: Cell viability, Cell Titer Glo luminescent assay (Examples 12, 16, 19, 20, 22)
Method: as §1, §2, §3, §4, §5, §6

[4] = test system: U937 (CD20 negative leukemia cell line); test: as above; details: for IC50, U937 (CD20 negative) 2-46 h: U937, 2-46 h (membrane integrity and viability time points), Example 12; for IC50, U937 2-48 h: Example 16
Method: as §1, §2, §5
Cells incubated for 4 hours were assayed for membrane integrity using a luminometric assay kit (Promega, Madison, Wis., Cytotox Glo G9292 lot #26229601). Cell viability was determined was determined after 24 hours using a luminescent assay kit (Promega, Madison, Wis., Cell Titer Glo, G 7572, lot 30731602). Controls for 100% cell viability (culture media) and 100% cell death (0.1% Triton X 100) incubated under the same conditions.
Human Non-Hodgkin's lymphoma cells Daudi (CD20 positive, passage number p3) and human leukemia cell line U937 (CD20 negative, p 12) were seeded at a density of 2,000 cells per well in opaque plates in heat inactivated full medium using cell dissociation buffer. […]

[5] = test system: Raji (CD20 positive Non-Hodgkin's lymphoma cells); test: Membrane integrity, Cytotox Glo luminometric assay (Example 12)
Method: as §1

[6] = test system: caspase 3/7 in Daudi cells (CD20 positive); test: Caspase 3/7 activation, Caspase Glo 3/7 luminometric assay (Examples 13, 17); details: 5 hours; scFv-Phor18 or scFv at 5 and 15 μg/ml; Staurosporine 10 μM = 100%; Daudi (Raji also seeded)
Method: Human Non-Hodgkin's lymphoma cells Daudi (CD20 positive, passage number p2), were seeded at a density of 3,000 cells per well in opaque plates in heat inactivated full medium. After 24 hours cells were fed with fresh media (75 μl) and incubated with AT80-Phor18 (0.76 mg/ml) or naked antibody AT-80 of 15 and 75 μg/ml (100 and 500 nM) (N=6). Staurosporine at 10 μM served as positive control for caspase 3/7 activation. After 5 hours of incubatin cultures were assayed for caspase 3/7 levels using a luminometric assay kit (Promega, Madison, Wis., Caspase Glo 3/7 G811C lot #28731802).
Caspase 3/7 activation was calculated from relative light units from luminometric signals. Staurosporine was set at 100% caspase 3/7 activation, cell suspension alone without additions of reagents served as 0% caspase levels.
In in vitro studies, caspase activation of recombinantly expressed CD20 targeting scFv-Phor18 conjugate with “naked” antibody (scFv) in CD20 positive cells (Daudi Burkitt's lymphoma) was compared. Human Non-Hodgkin's lymphoma cells Daudi (CD20 positive, p 5) and Raji (CD20 positive, passage number p 3), were seeded at a density of 3,000 cells per well in opaque plates in heat inactivated full medium. […]
Relative caspase 3/7 activation was calculated from relative light units from luminometric signals. […]

[7] = Example 12, listed as MS4A1-Phor18
[8] = 46 h (text: 48 h / 46 hours), Example 16

For Anti-CD20-Phor18 (MS4A1), the IC50 ([1]; 24 h, listed as MS4A1-Phor18, read-out: IC50, Raji 24 h) was 267 ± 13 nM, the IC50 ([1]; 24 h, read-out: IC50, Raji 24 h) was 267 ± 13 nM and the IC50 ([1]; 46 h (text: 48 h), read-out: IC50, Raji 46 h) was 227 ± 11 nM. The “IC50, Daudi 2 h” value ([2]; Example 12) was “Not toxic”, the “IC50, Daudi 2 h” value [2, 7] was “not active” and the “IC50, Daudi 5 h” value ([2]; Example 12) was “Not toxic”. For the same molecule, the “IC50, Daudi 5 h” value [2, 7] was “not active”, the IC50 ([3]; 24 h, Example 12, read-out: IC50, Daudi 24 h) was 10.6 ± 2.1 nM and the IC50 ([3]; 46 h (text: 48 h), Example 12, read-out: IC50, Daudi 46 h) was 3 ± 1.2 nM. The “IC50, U937 (CD20 negative) 2-46 h” value [4] was “Not toxic”, the “IC50, Raji 2 h” value ([5]; 2 h) was “not active” and the “IC50, Raji 5 h” value ([5]; 5 h) was “not active”.

With “Anti-CD20 MS4A1: naked anti-CD20 antibody MS4A1 (Rituximab Like, R&D) [reference compound]” the “IC50, Raji 24 h” value ([1]; 24 h) was “Not toxic”, the “IC50, Raji 46 h” value ([1]; 46 h (text: 48 h)) was “Not toxic” and the “IC50, Daudi 2 h” value ([2]; Example 12) was “Not toxic”. For the same molecule, the “IC50, Daudi 5 h” value ([2]; Example 12) was “Not toxic”, the “IC50, Daudi 24 h” value ([3]; 24 h, Example 12) was “Not toxic” and the “IC50, Daudi 46 h” value ([3]; 46 h (text: 48 h), Example 12) was “Not toxic”. For the same molecule, the “IC50, U937 (CD20 negative) 2-46 h” value [4] was “Not toxic”.

B1: scFv: naked single chain Fv anti-CD20 fragment with Rituxan CDRs, E. coli, SEQ ID NO.:92 (protein)
scFv: HHHHHHDIQLTQSPAILSASPGEKVTMTCRASSSVSYIHWFQQKPGSSPKPWIYATSNLASGVPVRFSGSGSGTSYSLTISRVEAEDAATYYCQQWTSNPPTFGGGTKLEIGSTSGGGSGGGSGGGGSSVQLQQPGAELVKPGASVKMSCKASGYTFTSYNMHWVKQTPGRGLEWIGAIYPGNGDTSYNQKFKGKATLTADKSSSTAYMQLSSLTSEDSAVYYCARSTYYGGDWYFDVWGQGTTVTVSS
With B1 the “IC50, Daudi 2 h” value ([2]; E. coli expressed, Example 16) was “Not toxic”, the “IC50, Daudi 5 h” value ([2]; E. coli expressed, Example 16) was “Not toxic” and the “Caspase 3/7 levels compared to Staurosporine” value [6] was “did not detectably activate caspases”. The “IC50, Daudi 24 h” value ([3]; 24 h, Example 16) was “Not toxic”, the “IC50, Daudi 46 h” value [3, 8] was “Not toxic” and the “IC50, U937 2-48 h” value [4] was “not killed; also recorded: Not toxic”.

B2: Fv-CH3-CH3-Fv: naked bivalent anti-CD20 minibody, E. coli, SEQ ID NO.:94 (protein)
chain: DIQLTQSPAILSASPGEKVTMTCRASSSVSYIHWFQQKPGSSPKPWIYATSNLASGVPVRFSGSGSGTSYSLTISRVEAEDAATYYCQQWTSNPPTFGGGTKLEIGSTSGGGSGGGSGGGGSSVQLQQPGAELVKPGASVKMSCKASGYTFTSYNMHWVKQTPGRGLEWIGAIYPGNGDTSYNQKFKGKATLTADKSSSTAYMQLSSLTSEDSAVYYCARSTYYGGDWYFDVWGQGTTVTVSSGQPREPQVYTLPPSRDELTKNQVSLTCLVKGFYPSDIAVEWESNGQPENNYKTTPPVLDSDGSFFLYSKLTVDKSRWQQGNVFSCSVMHEALHNHYTQKSLSLSPGKGSTSGGGSGGGSGGGGSSGQPREPQVYTLPPSRDELTKNQVSLTCLVKGFYPSDIAVEWESNGQPENNYKTTPPVLDSDGSFFLYSKLTVDKSRWQQGNVFSCSVMHEALHNHYTQKSLSLSPGKVQLQQPGAELVKPGASVKMSCKASGYTFTSYNMHWVKQTPGRGLEWIGAIYPGNGDTSYNQKFKGKATLTADKSSSTAYMQLSSLTSEDSAVYYCARSTYYGGDWYFDVWGQGTTVTVSSGSTSGGGSGGGSGGGGSSDIQLTQSPAILSASPGEKVTMTCRASSSVSYIHWFQQKPGSSPKPWIYATSNLASGVPVFSGSGSGTSYSLTISRVEAEDAATYYCQQWTSNPPTFGGGTKLEI
B2 was tested, and the “IC50, Daudi 24 h” value ([3]; 24 h, Example 16) was “Not toxic”, the “IC50, Daudi 46 h” value [3, 8] was “Not toxic” and the “IC50, U937 2-48 h” value [4] was “Not toxic”.
